Here are results for one compound from article PMC6843786, “Temporin-SHa and Its Analogs as Potential Candidates for the Treatment of Helicobacter pylori” (Biomolecules, 2019).

SMILES strings stand for the structures. “Also recorded” adds a separate entry of the source. Non-standard residues stand in square brackets, D forms with d. Residues, ends and D or L forms follow the SMILES beside them.

Data set [1] concerns human gastric explants. The data set can be described thus: Ex vivo toxicity assay, histological examination (H&E) of human gastric explants. The class given is cell-based. Particulars: 2, 4 or 8 h; peptides 100 µM, CTAB 300 µM; H&E staining. The procedure: To further evaluate the innocuity of the peptides, ex vivo experiments were performed using human explants as previously described. Briefly, human gastric tissue samples were obtained from patients undergoing surgery at the Hospital Laveran (Marseille, France), unit of gastrointestinal surgery according to a collaborative clinical transfer project. The procedures were approved by the French ethic committee (CODECOH n° DC-2019-3402). All patients agreed for the use of their tissues for research purposes. Samples were taken from healthy patients during sleeve gastrectomy from macroscopically unaffected area as identified by the surgeons. After resection, the specimens were placed in ice-cold oxygenated sterile DMEM solution containing 1% streptomycin/penicillin solution and 50 μg/mL gentamycin and were directly transferred to the laboratory within 15 min on ice. Gastric tissues were extensively washed and maintained in ice-cold culture media containing 1% streptomycin/penicillin solution and 50 μg/mL gentamycin. […] Quantification of the release of LDH was also used in addition to microscopic observations to evaluate the impact of peptides on human gastric explants. […] The LDH activity was measured using previously described protocol with minor changes. […] Increase in OD339nm was then measured at 30 °C after 0, 1, 5, and 10 min using microplate reader (Synergy Mx, Biotek). […]

Data set [2] has as its system human gastric explants. The data set can be described thus: Ex vivo toxicity assay, LDH release from human gastric explants. It counts as cell-based. Particulars: peptides 100 µM, CTAB 300 µM, % of total release. As for the experimental part: To further evaluate the innocuity of the peptides, ex vivo experiments were performed using human explants as previously described. Briefly, human gastric tissue samples were obtained from patients undergoing surgery at the Hospital Laveran (Marseille, France), unit of gastrointestinal surgery according to a collaborative clinical transfer project. The procedures were approved by the French ethic committee (CODECOH n° DC-2019-3402). All patients agreed for the use of their tissues for research purposes. Samples were taken from healthy patients during sleeve gastrectomy from macroscopically unaffected area as identified by the surgeons. After resection, the specimens were placed in ice-cold oxygenated sterile DMEM solution containing 1% streptomycin/penicillin solution and 50 μg/mL gentamycin and were directly transferred to the laboratory within 15 min on ice. Gastric tissues were extensively washed and maintained in ice-cold culture media containing 1% streptomycin/penicillin solution and 50 μg/mL gentamycin. Tissues were cleaned from vascular vessels and conjunctive tissue using forceps under binocular microscope. Gastric explants (wet weight of 20–30 mg) were then isolated from the cleaned resections using surgical punch (diameter of 0.5 cm^2). […] Finally, the explants were washed three times with culture media without antibiotics and transferred into 24-well plates before being incubated in RPMI media without fetal bovine serum, antibiotics and phenol red at 37 °C in the 5% CO2 incubator with 100 µM of peptides for 2, 4 or 8 h. Phenol red was omitted from the culture media since it interferes with the lactate dehydrogenase (LDH) assay. The detergent cetyl-trimethylammonium bromide (CTAB) at 300 µM was used as positive control of tissue damages. At the end of the incubation, the explants were collected and washed three times with PBS^++ and were fixed overnight at 4 °C with PFA diluted at 4% in PBS. After that, gastric explants were washed twice with PBS and were included in an inclusion medium (TFM-EMS), in transverse position to allow cutting in the crypt-villosity axis using cryostat (Leica CM3050) (Leica Microsystems, Nanterre, France). Four sections of 5 µm thickness were obtained per explant, each section being separated by 100 µm from the next in order to cover all the tissue. Explants were then stained using hematoxylin and eosin (H&E) staining protocol. Briefly, samples were incubated for 8 min in hematoxylin (Sigma-Aldrich) and then allowed to stain by incubation with water for 2 min. Then explants were incubated for 1 min in eosin (Sigma-Aldrich) and then in water for 1 min. This was followed by incubation of explants with ethanol at concentration of 70% then 95% and finally 100% for 2 min each. After blotting excess ethanol, gastric explants were incubated for 15 min with xylene and mounted with coverslip using Eukitt mounting media (EMS, Hatfield, PA, USA). Finally, explants were left overnight to dry before examination of tissue organization under the microscope (Leitz DMRB microscope (Leïca), equipped with Leïca DFC 450C camera). Quantification of the release of LDH was also used in addition to microscopic observations to evaluate the impact of peptides on human gastric explants. Briefly, after 2, 4 or 8 h of incubation of the explants with the peptides, the supernatants of the wells were collected and stored at -80 °C before the LDH assay. The LDH activity was measured using previously described protocol with minor changes. Briefly, 50 µL of supernatants obtained from explants were mixed with 200 µL of Tris-Lactate buffer (containing Tris HCl at 86 mM, L-Lactate at 56 mM and KCl at 172 mM, pH 9.3, all from Sigma-Aldrich) and 20 µL of NAD (at 172 mM, Sigma-Aldrich) into well of 96-wells plates. Increase in OD339nm was then measured at 30 °C after 0, 1, 5, and 10 min using microplate reader (Synergy Mx, Biotek). […]

A further data set concerns H. pylori (ATCC 43504). The data set can be described thus: MIC after digestion by pepsin (resistance to pepsin). As for the experimental part: Briefly, after the growth of H. pylori in liquid culture the optical density (OD) of the bacterial suspensions were read at 600 nm and adjusted to one. Stock solutions of the peptides at 1 mM were prepared in sterile water. Bacteria were diluted in medium to reach bacterial density around 10^5 bacteria/mL. One-hundred microliters per well of bacterial suspension were then added into sterile polypropylene 96-well microplates (Greiner BioOne, Paris, France) and exposed to increasing concentrations of peptides (from zero to 100 µM, 1:2 serial dilution). […] Plates were incubated at 37 °C for 24 h for H. pylori (ATCC 43504) and for 4–7 days for the clinical strains. H. pylori was tested in microaerophilic conditions generated using micro-anaerobic BD GasPak system. At the end of the incubation, OD600nm was measured using microplate reader (Synergy Mx, Biotek, Colmar, France). The MIC was defined as the lowest concentration of drug that inhibited visible growth of the organism. Experiments were conducted in independent triplicate (n = 3).
It is also rich with mucus to protect it from the aggressive acidity. For this reason, the impact of mucins and pepsin on the activity of the peptides was investigated. The impact of the gastric mucins on peptide activity was evaluated using a combination of commercial porcine stomach mucins MUC2 and MUC3 (Sigma–Aldrich) at a final concentration of 1 mg/mL sterilized using 0.2 µm filter. This concentration was used based on the estimated concentration of mucins present in the mucus in vivo [27]. The effect of mucins on peptides activity was evaluated by MIC and by time killing assay as explained below. The resistance of the peptides to pepsin was tested as previously described with some changes. […] This concentration was used since it corresponds the pepsin concentration in the stomach (0.5–1 mg/mL).

As for `CC[C@H](C)[C@H](NC(=O)CNC(=O)[C@H](CO)NC(=O)[C@H](CC(C)C)NC(=O)[C@@H](N)Cc1ccccc1)C(=O)N[C@H](C(=O)NCC(=O)N[C@@H](CCSC)C(=O)N[C@@H](CC(C)C)C(=O)N[C@H](C)C(=O)N[C@@H](CCCCN)C(=O)N[C@@H](CC(C)C)C(=O)N[C@@H](Cc1ccccc1)C(N)=O)C(C)C` [NST1, H-Phe^1-Leu^2-Ser^3-Gly^4-Ile^5-Val^6-Gly^7-Met^8-Leu^9-D-Ala^10-Lys^11-Leu^12-Phe^13-NH2] (H-FLSGIVGML[dA]KLF-NH2), the “tissue organization by microscopic observation” value in the data set on human gastric explants [1] was “tissue organization close to the negative controls”. The LDH release with human gastric explants [2] (2 h) turned out to be 8.3%; in the data set on human gastric explants [2] (4 h) it was 12.0%; in the data set with human gastric explants [2] (8 h) it was 25.0%. Further, the “MIC after Digestion by Pepsin” value in the data set with H. pylori (ATCC 43504) (4 h at 37 °C with pepsin 1 mg/mL in HCl pH 2) turned out to be 25 µM. In addition, the “resistance to pepsin (in words)” value in the data set on H. pylori (ATCC 43504) (4 h at 37 °C with pepsin 1 mg/mL, HCl pH 2) is listed as “partial resistance towards pepsin; also recorded: partial resistance to the digestion by pepsin”.
